# From ChEMBL document CHEMBL4483862, “Open-source discovery of chemical leads for next-generation chemoprotective antimalarials” (2018)
# System: Plasmodium berghei
# Test: Luciferase/luciferin-expressing antifolate-resistant parasites were used to infect a culture of HepG2 cells that were pre-incubated with compounds. Infected hepatocytes emit light due to the luciferase reaction. Assay results are presented as the percent inhibition of light emission compared to control. […]
# Format: functional
# Details: sporozoite; for IC90: read-out: LUCIFERASE INFECTION ASSAY - IC90
SMILES,IC90,further results
c1ccc(CNc2nccc3[nH]c(-c4ccccc4)nc23)cc1,7.44 µM,"IC50 (HEPG2TOX_HILL_SLOPE 2.3, HEPG2TOX_R_SQUARED 0.763, PBLUC_HILL_SLOPE 1.79, PBLUC_R_SQUARED 0.522, read-out: LUCIFERASE INFECTION ASSAY - IC50): 2.19 µM"
CCN(CC)S(=O)(=O)c1cc(NC(=O)C2CCN(c3ncnc4sc(C)c(C)c34)CC2)ccc1Cl,3.98 µM,"IC50 (HEPG2TOX_HILL_SLOPE 2.3, HEPG2TOX_R_SQUARED 0.823, PBLUC_HILL_SLOPE 13, PBLUC_R_SQUARED 0.57, read-out: LUCIFERASE INFECTION ASSAY - IC50): 3.36 µM"
CC1(C)CC(N2CCN(C(c3ccccc3)c3ccccc3)CC2)=CC(=[N+]2CCCCC2)C1,1.67 µM,"IC50 (HEPG2TOX_HILL_SLOPE 2.29, HEPG2TOX_R_SQUARED 0.813, PBLUC_HILL_SLOPE 10.9, PBLUC_R_SQUARED 0.679, read-out: LUCIFERASE INFECTION ASSAY - IC50): 1.36 µM"
COc1cccc(CN2CCC2(C)C(=O)Nc2cccc(Oc3ccccc3)c2)c1F (configuration not stated),> 7.85 µM,"IC50 (HEPG2TOX_HILL_SLOPE 2.25, HEPG2TOX_R_SQUARED 0.907, PBLUC_HILL_SLOPE 3.39, PBLUC_R_SQUARED 0.419, read-out: LUCIFERASE INFECTION ASSAY - IC50): 5.73 µM"
COc1cc(Nc2ncc3c(n2)CCN(C(=O)Nc2ccc(C(C)C)cc2)C3)cc(OC)c1OC,6.4 µM,"IC50 (HEPG2TOX_HILL_SLOPE 2.3, HEPG2TOX_R_SQUARED 0.688, PBLUC_HILL_SLOPE 0.8, PBLUC_R_SQUARED 0.723, read-out: LUCIFERASE INFECTION ASSAY - IC50): 0.411 µM"
CC(Sc1nc(Nc2ccccc2)c2ccccc2n1)C(=O)Nc1sccc1C#N (configuration not stated),> 10 µM,"IC50 (HEPG2TOX_HILL_SLOPE 2.3, HEPG2TOX_R_SQUARED 0.812, read-out: LUCIFERASE INFECTION ASSAY - IC50): > 10 µM"
O=C1CC(c2ccc(Cl)cc2)Cc2c1cnn2-c1ccc(Cl)cc1 (configuration not stated),> 9.24 µM,"IC50 (HEPG2TOX_HILL_SLOPE 2.3, HEPG2TOX_R_SQUARED 0.887, PBLUC_HILL_SLOPE 1.56, PBLUC_R_SQUARED 0.715, read-out: LUCIFERASE INFECTION ASSAY - IC50): 2.9 µM"
COc1ccccc1C(=O)c1cnc(Nc2cccc(Oc3ccccc3)c2)[nH]1,3.37 µM,"IC50 (HEPG2TOX_HILL_SLOPE 2.29, HEPG2TOX_R_SQUARED 0.975, PBLUC_HILL_SLOPE 12.2, PBLUC_R_SQUARED 0.607, read-out: LUCIFERASE INFECTION ASSAY - IC50): 2.81 µM"
O=C(NCc1ccc(Oc2ccc(F)cc2)cc1)c1ccc(=O)[nH]n1,> 10 µM,"IC50 (HEPG2TOX_HILL_SLOPE 2.29, HEPG2TOX_R_SQUARED 0.724, PBLUC_HILL_SLOPE 1.94, PBLUC_R_SQUARED 0.162, read-out: LUCIFERASE INFECTION ASSAY - IC50): 5.95 µM"
O=C(c1ccc(S(=O)(=O)C(F)(F)F)cc1)N1CCN(Cc2csc(-c3ccccc3)n2)CC1,4.21 µM,"IC50 (HEPG2TOX_HILL_SLOPE 2.26, HEPG2TOX_R_SQUARED 0.817, PBLUC_HILL_SLOPE 12.1, PBLUC_R_SQUARED 0.456, read-out: LUCIFERASE INFECTION ASSAY - IC50): 3.51 µM"
Cc1cccc(N2CCN(C(=O)c3cccc(OCc4c(C)noc4C)c3)CC2)c1C,> 10 µM,"IC50 (HEPG2TOX_HILL_SLOPE 2.27, HEPG2TOX_R_SQUARED 0.832, PBLUC_HILL_SLOPE 9.75, PBLUC_R_SQUARED 0.237, read-out: LUCIFERASE INFECTION ASSAY - IC50): 9.51 µM"
CC(=O)Nc1cccc(-c2cn3c(-c4ccc5c(ccn5C)c4)cnc3cn2)c1,7.79 µM,"IC50 (HEPG2TOX_HILL_SLOPE 2.25, HEPG2TOX_R_SQUARED 0.952, PBLUC_HILL_SLOPE 1.38, PBLUC_R_SQUARED 0.642, read-out: LUCIFERASE INFECTION ASSAY - IC50): 1.59 µM"
C/C(=N\NC(=O)c1ccc(OCC(=O)N2C(C)CCCC2C)cc1)c1ccc2ccccc2c1O (configuration not stated),3.9 µM,"IC50 (HEPG2TOX_HILL_SLOPE 2.27, HEPG2TOX_R_SQUARED 0.93, PBLUC_HILL_SLOPE 2.78, PBLUC_R_SQUARED 0.436, read-out: LUCIFERASE INFECTION ASSAY - IC50): 1.77 µM"
Clc1ccc2c(c1)-c1nc(-c3ccncc3)ncc1CS2,5.94 µM,"IC50 (HEPG2TOX_HILL_SLOPE 2.28, HEPG2TOX_R_SQUARED 0.969, PBLUC_HILL_SLOPE 3.97, PBLUC_R_SQUARED 0.207, read-out: LUCIFERASE INFECTION ASSAY - IC50): 3.41 µM"
COc1cccc(C(=O)Nc2nc3ccccn3c2C(=O)NC2CCCCC2)c1,2.95 µM,"IC50 (HEPG2TOX_HILL_SLOPE 2.26, HEPG2TOX_R_SQUARED 0.97, PBLUC_HILL_SLOPE 3.61, PBLUC_R_SQUARED 0.707, read-out: LUCIFERASE INFECTION ASSAY - IC50): 1.61 µM"
C(=C1\CCc2cnc3scc[n+]3c21)/c1ccccc1,> 10 µM,"IC50 (HEPG2TOX_HILL_SLOPE 2.32, HEPG2TOX_R_SQUARED 0.938, read-out: LUCIFERASE INFECTION ASSAY - IC50): > 10 µM"

SMILES,IC90,further results
O=C(Nc1ccc(OCc2ccccc2)cc1)C1=COC2=NC(=O)N(Cc3cccc(Cl)c3)CCN12,4.47 µM,"IC50 (HEPG2TOX_HILL_SLOPE 2.27, HEPG2TOX_R_SQUARED 0.429, PBLUC_HILL_SLOPE 8.12, PBLUC_R_SQUARED 0.376, read-out: LUCIFERASE INFECTION ASSAY - IC50): 3.41 µM"
O=C1C=C/C(=N\Nc2ccc3ncsc3c2)c2cccnc21,> 10 µM,"IC50 (HEPG2TOX_HILL_SLOPE 2.28, HEPG2TOX_R_SQUARED 0.978, PBLUC_HILL_SLOPE 13.8, PBLUC_R_SQUARED 0.454, read-out: LUCIFERASE INFECTION ASSAY - IC50): 8.95 µM"
Cc1nc(NC(=O)c2cnn(C)c2)sc1Cc1ccccc1Cl,3.3 µM,"IC50 (HEPG2TOX_HILL_SLOPE 2.29, HEPG2TOX_R_SQUARED 0.901, PBLUC_HILL_SLOPE 11.8, PBLUC_R_SQUARED 0.668, read-out: LUCIFERASE INFECTION ASSAY - IC50): 2.74 µM"
COCOc1ccc(-c2cc(-c3cccc4cccnc34)cnc2N)cc1,> 9.23 µM,"IC50 (HEPG2TOX_HILL_SLOPE 2.28, HEPG2TOX_R_SQUARED 0.55, PBLUC_HILL_SLOPE 1.41, PBLUC_R_SQUARED 0.714, read-out: LUCIFERASE INFECTION ASSAY - IC50): 3.26 µM"
Nc1ncc(-c2cccc(OC(F)(F)F)c2)cc1-c1cncc2ccccc12,3.99 µM,"IC50 (HEPG2TOX_HILL_SLOPE 2.29, HEPG2TOX_R_SQUARED 0.959, PBLUC_HILL_SLOPE 12.1, PBLUC_R_SQUARED 0.284, read-out: LUCIFERASE INFECTION ASSAY - IC50): 3.33 µM"
O=C(Nc1ccc(Oc2ccc3ccccc3c2)cc1)c1ccccc1,1.16 µM,"IC50 (HEPG2TOX_HILL_SLOPE 2.3, HEPG2TOX_R_SQUARED 0.782, PBLUC_HILL_SLOPE 2.18, PBLUC_R_SQUARED 0.822, read-out: LUCIFERASE INFECTION ASSAY - IC50): 0.424 µM"
C=CCN(C(=O)c1cccc(S(=O)(=O)N2CCCC2)c1)c1nc2c(s1)CCCC2,8.77 µM,"IC50 (HEPG2TOX_HILL_SLOPE 2.26, HEPG2TOX_R_SQUARED 0.795, PBLUC_HILL_SLOPE 11.6, 3.98, PBLUC_R_SQUARED 0.244, 0.586, read-out: LUCIFERASE INFECTION ASSAY - IC50): 7.23 µM"
COCCNC(=S)NNc1ccc2ccccc2c1,1.19 µM,"IC50 (HEPG2TOX_HILL_SLOPE 2.26, HEPG2TOX_R_SQUARED 0.95, PBLUC_HILL_SLOPE 42.9, PBLUC_R_SQUARED 0.446, read-out: LUCIFERASE INFECTION ASSAY - IC50): 1.13 µM"
CCOCCSc1nc(-c2ccccc2)c(-c2ccccc2)[nH]1,> 10 µM,"IC50 (HEPG2TOX_HILL_SLOPE 2.32, HEPG2TOX_R_SQUARED 0.811, read-out: LUCIFERASE INFECTION ASSAY - IC50): > 10 µM"
CCC(C)NC(=O)c1c(NC(=O)c2cccc(C#N)c2)nc2ccc(C)cn12 (configuration not stated),3.79 µM,"IC50 (HEPG2TOX_HILL_SLOPE 2.26, HEPG2TOX_R_SQUARED 0.914, PBLUC_HILL_SLOPE 14.3, PBLUC_R_SQUARED 0.23, read-out: LUCIFERASE INFECTION ASSAY - IC50): 3.25 µM"
OC1CCN(c2ccnc3c(-c4ccc(Oc5ccccc5)cc4)cnn23)CC1,7.21 µM,"IC50 (HEPG2TOX_HILL_SLOPE 2.26, HEPG2TOX_R_SQUARED 0.638, PBLUC_HILL_SLOPE 2.48, PBLUC_R_SQUARED 0.699, read-out: LUCIFERASE INFECTION ASSAY - IC50): 2.98 µM"
COc1cccc(-c2cc3c(cn2)nc(NCCc2cc(OC)ccc2OC)n3C)c1,0.667 µM,"IC50 (HEPG2TOX_HILL_SLOPE 2.25, HEPG2TOX_R_SQUARED 0.767, PBLUC_HILL_SLOPE 1.04, PBLUC_R_SQUARED 0.785, read-out: LUCIFERASE INFECTION ASSAY - IC50): 0.0813 µM"
O=C(Nc1ccc(Cl)c(Cl)c1)n1ccc(C(F)(F)F)n1,> 10.2 µM,"IC50 (HEPG2TOX_HILL_SLOPE 2.26, HEPG2TOX_R_SQUARED 0.289, PBLUC_HILL_SLOPE 2.6, PBLUC_R_SQUARED 0.537, read-out: LUCIFERASE INFECTION ASSAY - IC50): 5.64 µM"
Clc1ccccc1-c1nc2ccnc(NCCc3ccccn3)c2[nH]1,> 10 µM,"IC50 (HEPG2TOX_HILL_SLOPE 2.25, HEPG2TOX_R_SQUARED 0.756, PBLUC_HILL_SLOPE 1.33, PBLUC_R_SQUARED 0.656, read-out: LUCIFERASE INFECTION ASSAY - IC50): 5.37 µM"
CCOc1ccccc1NC(=O)C(NCc1ccc(OC(F)F)cc1)c1ccccc1 (configuration not stated),4.47 µM,"IC50 (HEPG2TOX_HILL_SLOPE 2.27, HEPG2TOX_R_SQUARED 0.924, PBLUC_HILL_SLOPE 9.94, PBLUC_R_SQUARED 0.658, read-out: LUCIFERASE INFECTION ASSAY - IC50): 3.59 µM"
